Assay results as given in US20250303006A1, “BIOCOMPATIBLE ANTISEPTIC COMPOSITION CONTAINING 9-HYDROXYCALABAXANTHONE AND/OR RELATED XANTHONES” (UNIVERSITAT DE LES ILLES BALEARS, priority 2022, published 2025).

Experiments:
S. mutans = S. mutans culture and proliferation assay; type: cell-based, Streptococcus mutans; conditions: 5 h
Procedure: S. mutans CECT 479 (obtained from The Spanish Type Culture Collection (CECT), University of Valencia) was grown from frozen stocks in BHI broth (Scharlab), at 37° C. under aerobic conditions in an orbital shaker (180 rpm). After overnight incubation, 1 mL of bacterial suspensions were incubated with different concentrations of CHX (0.01, 0.005, 0.003, 0.001, 0.0001%) and HCX (0.003, 0.002, 0.001, 0.0002, 0.00002%) for 5 hours at 37° C. under aerobic conditions in an orbital shaker (180 rpm). Bacterial suspension without treatment served as negative control (C−). The optical density (OD) was measured at 600 nm at 0 h and 5 h to determine bacterial proliferation (PowerWave Ht). The bacterial growth rate (μ) was calculated during the exponential growth phase following the equation ln ODt−ln OD0=μ×(t−t0) (n=3). The live/Dead ratio of bacteria was determined using the LIVE/DEAD BacLight bacterial viability kit (Invitrogen), following the manufacturer's instructions. The assays were carried out in triplicate, with two replicates at each condition (n=3).
The bacteria S. mutans was cultured and treated with different commercial periodontal gels and HA formulated with 0.1%, 0.05%, and 0.01% HCX and aMG for 24 h. The gels were tested at a concentration of 5% (v/v), and the experiment was run like in experiment 8 of section 8.1.

C. acnes = C. acnes culture and proliferation assay; type: cell-based, Cutibacterium acnes; conditions: 0.0002% HCX, 24 h
Procedure: C. acnes 5684 (CECT, Valencia, Spain) was grown on Tryptic soy broth (TSB) (Scharlab), supplemented with 0.5 g/I L-Cysteine hydrochloride (Thermo Fisher Scientific), 1.0 mg/I hemin (Thermo Fisher Scientific) and 5.0 mg/I glucose (Scharlab) under anaerobic conditions (10% H2, 10% CO2 and 80% N2) achieved with an Oxoid Anaerogen™ sachet (Thermo Fisher Scientific) at 37° C. for 48 h. After overnight incubation, 1 mL of C. acnes was incubated with different concentrations of CHX (0.01, 0.005, 0.003, 0.001%) and HCX (0.003, 0.002, 0.001, 0.0002%) for 24 hours at 37° C. under anaerobic conditions achieved with an Oxoid Anaerogen™ sachet. Bacterial suspension without treatment served as negative control (C−). The optical density (OD) was measured at 600 nm at 0 h and 24 h to determine bacterial proliferation (PowerWave Ht). The bacterial growth rate (μ) was calculated during the exponential growth phase following the equation ln ODt−ln OD0=μ×(t−t0) (n=4). The live/Dead ratio of bacteria was determined using the LIVE/DEAD BacLight bacterial viability kit (Invitrogen), following the manufacturer's instructions. The assays were carried out in triplicate.

Question: For COc1c(O)cc2oc3cc4c(c(O)c3c(=O)c2c1CC=C(C)C)C=CC(C)(C)O4 [HCX, 9-hydroxycalabaxanthone], which bacteria eliminated (S. mutans; 0.0002% HCX) is on record?
Answer: 70%

Question: And the bacteria eliminated (S. mutans; 0.001% HCX)?
Answer: 90%

Question: What about the bacteria eliminated (C. acnes) of the same molecule?
Answer: 96%
